Columns and labels:
[1] = system: volume-induced rhythmic urinary bladder contractions; assay: volume-induced rhythmic urinary bladder contractions in urethane anaesthetised rats (rat model of overactive bladder); type: in vivo, Sprague Dawley rat
Excerpt: In the search for new drugs compounds are of interest which affect the central nervous system circuits involved in micturation as well as the peripheral nerves resulting in a decrease in the frequency of the voiding reflex without any effect on bladder contractility. […] The method utilises spontaneous, volume-induced contractions of the urinary bladder in anaesthetised rats and was developed and first described by Dray (J. Pharmacol. Meth. 13:157-165, 1985) to assess the central activity of substances with opioid properties on bladder function. As this model clearly mimics the interplay between smooth muscle function and neuronal control thereof, this model can be also used to predict drug effects in a different disease, i.e. irritable bowl syndrome (IBS).
Aim of the study: To characterise the effects of the analgesic flupirtine maleate on the bladder function we used the model volume-induced contractions of urinary bladder in urethane anaesthetised rats. […] The compounds at the dose range 0.1-10 mg/kg were intraduodenally administered to anaesthetised rats. The intraduodenal route was chosen to mimic the oral route and to avoid the use of solvents necessary for intravenous administration.
• Species: Sprague Dawley rat • Sex: Female • Body weight: 200-270 g • Breeder: Charles River, Sulzfeld • Food/Tap water: pellets, ssniff M/R15, ad libitum, Spezialdiäten GmbH, Soest/Wesffalen, FRG • Conditions in animal housing: Rats were kept conventionally in groups of 6 in macrolon cages No. 4. • Room temperature: 20-24° C. • Relative humidity: 40-70%, deviations from the maximum range caused during cleaning procedure are possible • Light/Dark rhythm: 12/12 h light/dark cycle, light on at 6:00 a.m.
The food was withdrawn 16 hours before intraduodenal drug administration. Tap water was available ad libitum.
Flupirtine maleate or oxybutynin hydrochloride were suspended in hydroxyethylcellulose (0.5%) in demineralised water. The substances were ground in a mortar with pistil. The suspensions were placed on a magnetic stirrer before and during dosing procedures. The substances were freshly prepared in the morning and applied intraduodenally in a volume of 0.4 ml/100 g body weight. Control rats received hydroxyethylcellulose (0.5%) i.d.
The filling material, consisting of small globules, was ground in a mortar with pistil. Thereafter the grounded material was suspended in hydroxyethylcellulose (0.5%) in demineralised water. The suspensions were placed on a magnetic stirrer before and during dosing procedures for 10 minutes. The suspensions were freshly prepared in the morning and applied intraduodenally in a volume of 0.4 ml/100 g body weight to rats. Control rats received the same amount of hydroxyethylcellulose (0.5%) i.d.
The continuous registration lasted 1 hr. […] The frequency was evaluated for 10 min before (baseline) and within the observation period in intervals of 10 minutes starting 5, 20, 35 and 50 min after drug administration. For intraduodenal dosing, drugs were administered via a duodenal polyethylene tube to animals in aqueous suspension of 0.5% hydroxyethylcellulose.

[2] = system: isolated organ strips of rat bladder; assay: isolated organ strips of rat bladder contracted with potassium chloride (40 mM); details: read-out: IC50, concentration needed to counteract the contractile response of potassium chloride by 50%, isolated organ bath
Method: Flupirtine was also tested in an in vitro model of detrusor muscle activity. In this model, isolated organ strips of rat bladder was introduced in an isolated organ bath system. […] In this model, flupirtine did show some activity, but the concentration needed to relax the bladder strip was rather high. […] Direct effects on the bladder wall may be of limited relevance for the pharmacological effect. Indeed, this is in line with the observation that the contraction force of the detrusor in above mentioned in vivo models was not influenced at doses which clearly had pharmacological effects on micturation frequency.

[3] = system: bladder instability after partial ligation of the proximal urethra; assay: bladder hyperactivity/detrusor instability induced by chronic partial outflow obstruction; type: in vivo, rats; details: cystometry, 6 weeks after partial ligation
Excerpt: A different model of bladder hyperactivity/detrusor instability induced by chronic partial outflow obstruction is also useful to evaluate the efficacy of a compound. Partial obstruction is achieved using partial ligation of the proximal urethra in rats. […] This can be recorded using cystometry. This model more closely resembles the situation during prostate hyperplasia and other diseases resulting in outflow obstruction. Flupirtine is also active in this model.

[4] = system: mean arterial blood pressure; assay: mean arterial blood pressure recorded in the urethane anaesthetised rats of the bladder model; details: summary over the doses tested
Method: The body temperature was maintained at 37° C. by means of an heated small operating table and 2 red light heating lamps. The left carotid artery was prepared and a catheter for continuous blood pressure measurement was inserted and connected to a Statham pressure transducer (Model P23 Db) and connected with a computer-controlled physiological recorder (PMS PR 800, Mumed Systems Ltd London, GB).
For intraduodenal drug administration a polyethylene catheter was inserted into the upper part of the duodenum, about 5 cm downwards from the pylorus and fixed with a purse-string suture. Bilateral ureters were ligated proximally to the bladder to prevent the bladder filling with urine. Urine of the kidneys was drained onto cotton swabs within the abdomen. The urinary bladder was catheterised via the urethra by use of PE 50 polyethylene tubing filled with physiological saline and secured in place by a ligature at the lower part of the urethra. Using a “T”-connector, the bladder catheter was connected to a Statham pressure transducer (Model P23 Db) connected with the physiological recorder (PMS PR 800) to measure intravesicular pressure and to a Infusion pump (TSE, FRG). Continuous recordings of intravesicular pressure and arterial blood pressure were captured onto a 4 channel Linearcorder WR3310 (Western Graphtec, Inc., USA). The experiment was started infusing (0.05 ml/min) the bladder with warmed saline (37-38° C.) to evoke rhythmic bladder contractions by means an infusion pump up to a maximal volume of 1.0 ml. The infusion is stopped after reaching the final volume or with the start of rhythmic bladder contractions.

CCOC(=O)Nc1ccc(NCc2ccc(F)cc2)nc1N [flupirtine, 2-amino-3-carbethoxyamino-6-(4-fluorobenzylamino)-pyridine]
fold higher activity in the bladder model than in the analgesia tests ([1]; compared with analgesic ED50 values): 3-10 fold
intraduodenal dose at which the first effects became visible ([1]; intraduodenal): 3 mg/kg
IC50 [2]: 7.5 µM
activity in the chronic partial outflow obstruction model [3]: active
effect on peripheral blood pressure [4]: not cause any effect

— patent US7309713B2, “Use of the non-opiate analgesic drug flupirtine for the treatment of overactive bladder and associated diseases including urge incontinence, urinary flow problems as a result of prostate hyperplasia and irritable bowel syndrome” (priority 2005, dated 2007)
